Source: patent US11053204B2, “Pyrimidinyloxy benzene derivatives as herbicides” (FMC Corporation, priority 2015, dated 2021)

Legend:
Assay type in all cases: in vivo
[1] = tested on: galium (catchweed bedstraw, Galium aparine); assay: Test C preemergence, plant response rating
[2] = tested on: wild poinsettia (Euphorbia heterophylla); assay: Test C preemergence, plant response rating
[3] = tested on: nightshade (eastern black nightshade, Solanum ptycanthum); assay: Test C preemergence, plant response rating
[4] = tested on: oat, wild (wild oat Avena fatua); assay: Test C preemergence, plant response rating
[5] = tested on: johnsongrass (Sorghum halepense); assay: Test C preemergence, plant response rating
[6] = tested on: field violet (Viola arvensis); assay: Test C postemergence, plant response rating; conditions: for Field Violet plant response rating: scale 0 to 100 (0 no effect, 100 complete control)
Outline: (§1)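 Preemergence: seeds sown in loam–sand blend or silt loam and sprayed with test chemicals in a non-phytotoxic surfactant-containing solvent. Postemergence: potted plants at 2–18 cm (1–4-leaf stage) sprayed with the same formulation. After 13–15 d in greenhouse, visual rating versus controls on 0 (no effect) to 100 (complete control) scale.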

[7] = tested on: geranium, cutleaf (cutleaf geranium, Geranium dissectum); assay: Test C postemergence, plant response rating; conditions: for Geranium, Cutleaf plant response rating: scale 0 to 100 (0 no effect, 100 complete control)
Outline: as §1

[8] = tested on: speedwell (bird's-eye speedwell, Veronica persica); assay: Test C postemergence, plant response rating; conditions: for Speedwell plant response rating: scale 0 to 100 (0 no effect, 100 complete control)
Outline: as §1

[9] = tested on: nightshade (eastern black nightshade, Solanum ptycanthum); assay: Test C postemergence, plant response rating; conditions: for Nightshade plant response rating: scale 0 to 100 (0 no effect, 100 complete control)
Outline: as §1

[10] = tested on: Canada thistle (Cirsium arvense); assay: Test C postemergence, plant response rating; conditions: for Canada Thistle plant response rating: scale 0 to 100 (0 no effect, 100 complete control)
Outline: as §1

[11] = tested on: johnsongrass (Sorghum halepense); assay: Test C postemergence, plant response rating; conditions: for Johnsongrass plant response rating: scale 0 to 100 (0 no effect, 100 complete control)
Outline: as §1

[12] = tested on: field poppy (Papaver rhoeas); assay: Test C postemergence, plant response rating; conditions: for Field Poppy plant response rating: scale 0 to 100 (0 no effect, 100 complete control)
Outline: as §1

[13] = tested on: wild poinsettia (Euphorbia heterophylla); assay: Test C postemergence, plant response rating; conditions: for Poinsettia, Wild plant response rating: scale 0 to 100 (0 no effect, 100 complete control)
Outline: as §1

[14] = tested on: buckwheat, wild (wild buckwheat, Polygonum convolvulus); assay: Test C postemergence, plant response rating; conditions: for Buckwheat, Wild plant response rating: scale 0 to 100 (0 no effect, 100 complete control)
Outline: as §1

[15] = tested on: pigweed, palmer (palmer pigweed, Amaranthus palmeri); assay: Test C postemergence, plant response rating; conditions: for Pigweed, Palmer plant response rating: scale 0 to 100 (0 no effect, 100 complete control)
Outline: as §1

[16] = tested on: windgrass (Apera spica-venti); assay: Test C postemergence, plant response rating
Outline: as §1

[17] = tested on: surinam grass (Brachiaria decumbens); assay: Test C postemergence, plant response rating
Outline: as §1

[18] = tested on: windgrass (Apera spica-venti); assay: Test C preemergence, plant response rating
[19] = tested on: barnyardgrass (Echinochloa crus-galli); assay: Test C preemergence, plant response rating; conditions: Preemergence
[20] = 125 g ai/ha, scale 0 to 100 (0 no effect, 100 complete control)

N#Cc1cccc(Oc2ncc(Cl)cn2)c1COCCC(F)(F)F [Compound 80]
Plant response rating, Galium ([1]; 31 g ai/ha, scale 0 to 100): 5 | Plant response rating, Galium ([1]; 62 g ai/ha, scale of 0 to 100): 75 | Plant response rating, Galium ([1]; 125 g ai/ha, scale of 0 to 100): 98 | Plant response rating, Poinsettia, Wild ([2]; 31 g ai/ha, scale 0 to 100): 30 | Plant response rating, Poinsettia, Wild ([2]; 62 g ai/ha, scale 0 to 100): 40 | Plant response rating, Poinsettia, Wild ([2]; 125 g ai/ha, scale of 0 to 100): 85 | Plant response rating, Nightshade ([3]; 31 g ai/ha, scale 0 to 100): 70 | Plant response rating, Nightshade ([3]; 62 g ai/ha, scale 0 to 100): 85 | Plant response rating, Nightshade ([3]; 125 g ai/ha, scale of 0 to 100): 90 | Plant response rating, Oat, Wild ([4]; 31 g ai/ha, scale 0 to 100): 0 | Plant response rating, Oat, Wild ([4]; 62 g ai/ha, scale 0 to 100): 10 | Plant response rating, Oat, Wild ([4]; 125 g ai/ha, scale of 0 to 100): 30 | Plant response rating, Johnsongrass ([5]; 31 g ai/ha, scale 0 to 100): 30 | Plant response rating, Johnsongrass ([5]; 62 g ai/ha, scale 0 to 100): 55 | Plant response rating, Johnsongrass ([5]; 125 g ai/ha, scale of 0 to 100): 60 | Plant response rating, Field Violet ([6]; 16 g ai/ha, scale of 0 to 100): 75 | Plant response rating, Field Violet ([6]; 31 g ai/ha, scale 0 to 100): 85 | Field Violet plant response rating ([6]; 62 g ai/ha): 90 | Field Violet plant response rating ([6]; 125 g ai/ha): 95 | Plant response rating, Geranium, Cutleaf ([7]; 16 g ai/ha, scale of 0 to 100): 30 | Plant response rating, Geranium, Cutleaf ([7]; 31 g ai/ha, scale 0 to 100): 35 | Geranium, Cutleaf plant response rating ([7]; 62 g ai/ha): 35 | Geranium, Cutleaf plant response rating ([7]; 125 g ai/ha): 60 | Plant response rating, Speedwell ([8]; 16 g ai/ha, scale of 0 to 100): 90 | Plant response rating, Speedwell ([8]; 31 g ai/ha, scale 0 to 100): 100 | Speedwell plant response rating ([8]; 62 g ai/ha): 100 | Speedwell plant response rating ([8]; 125 g ai/ha): 100 | Plant response rating, Nightshade ([9]; 16 g ai/ha, scale of 0 to 100): 60 | Plant response rating, Nightshade ([9]; 31 g ai/ha, scale 0 to 100): 65 | Nightshade plant response rating ([9]; 62 g ai/ha): 70 | Nightshade plant response rating ([9]; 125 g ai/ha): 75 | Plant response rating, Canada Thistle ([10]; 16 g ai/ha, scale of 0 to 100): 75 | Plant response rating, Canada Thistle ([10]; 31 g ai/ha, scale 0 to 100): 75 | Canada Thistle plant response rating ([10]; 62 g ai/ha): 75 | Canada Thistle plant response rating ([10]; 125 g ai/ha): 85 | Plant response rating, Johnsongrass ([11]; 16 g ai/ha, scale of 0 to 100): 5 | Plant response rating, Johnsongrass ([11]; 31 g ai/ha, scale 0 to 100): 5 | Johnsongrass plant response rating ([11]; 62 g ai/ha): 5 | Johnsongrass plant response rating ([11]; 125 g ai/ha): 5 | Plant response rating, Field Poppy ([12]; 16 g ai/ha, scale of 0 to 100): 70 | Plant response rating, Field Poppy ([12]; 31 g ai/ha, scale 0 to 100): 75 | Field Poppy plant response rating ([12]; 62 g ai/ha): 85 | Field Poppy plant response rating ([12]; 125 g ai/ha): 85 | Plant response rating, Poinsettia, Wild ([13]; 16 g ai/ha, scale of 0 to 100): 65 | Plant response rating, Poinsettia, Wild ([13]; 31 g ai/ha, scale 0 to 100): 65 | Poinsettia, Wild plant response rating ([13]; 62 g ai/ha): 70 | Poinsettia, Wild plant response rating ([13]; 125 g ai/ha): 75 | Plant response rating, Buckwheat, Wild ([14]; 16 g ai/ha, scale of 0 to 100): 70 | Plant response rating, Buckwheat, Wild ([14]; 31 g ai/ha, scale 0 to 100): 70 | Buckwheat, Wild plant response rating ([14]; 62 g ai/ha): 75 | Buckwheat, Wild plant response rating ([14]; 125 g ai/ha): 95 | Plant response rating, Pigweed, Palmer ([15]; 16 g ai/ha, scale of 0 to 100): 30 | Plant response rating, Pigweed, Palmer ([15]; 31 g ai/ha, scale 0 to 100): 35 | Pigweed, Palmer plant response rating ([15]; 62 g ai/ha): 70 | Pigweed, Palmer plant response rating ([15]; 125 g ai/ha): 60 | Plant response rating, Windgrass ([16]; 16 g ai/ha, scale of 0 to 100): 0 | Plant response rating, Windgrass ([16]; 31 g ai/ha, scale 0 to 100): 5 | Windgrass plant response rating [16, 20]: 30 | Plant response rating, Surinam Grass ([17]; 16 g ai/ha, scale of 0 to 100): 10 | Plant response rating, Surinam Grass ([17]; 31 g ai/ha, scale 0 to 100): 10 | Surinam Grass plant response rating [17, 20]: 25 | Plant response rating, Windgrass ([18]; 31 g ai/ha, scale 0 to 100): 60 | Plant response rating, Windgrass ([18]; 62 g ai/ha, scale 0 to 100): 100 | Plant response rating, Windgrass ([18]; 125 g ai/ha, scale of 0 to 100): 100 | Plant response rating, Barnyardgrass ([19]; 62 g ai/ha, scale of 0 to 100): 70 | Plant response rating, Barnyardgrass ([19]; 125 g ai/ha, scale of 0 to 100): 100 | Plant response rating, Barnyardgrass ([19]; 16 g ai/ha, scale 0 to 100): 10 | Plant response rating, Barnyardgrass ([19]; 31 g ai/ha, scale 0 to 100): 30
